Results: ChEMBL document CHEMBL1150859, “Gelliusterols A--D, new acetylenic sterols from a sponge, Gellius species” (J Nat Prod, 2001)
≈ marks a conversion by molar mass, not a printed value.

Key:
Assay type in all cases: functional, cell-based
SK-MEL-28 = experiment: Cytotoxicity against human SK-MEL-28 cells
HT-29 = experiment: Cytotoxicity against human HT-29 cells
P388 = experiment: Cytotoxicity against mouse P388 cells
A549 = experiment: Cytotoxicity against human A549 cells
DU-145 = experiment: Cytotoxicity against human DU145 cells

Compound	IC50 (SK-MEL-28)	IC50 (HT-29)	IC50 (P388)	IC50 (A549)	IC50 (DU-145)
CC#CC[C@@H](C)[C@H]1CC[C@H]2[C@@H]3[C@H](O)C=C4C[C@@H](O)CC[C@]4(C)[C@H]3CC[C@]12C [GELLIUSTEROL A]	> 1 µg/mL	> 1 µg/mL	> 1 µg/mL	> 1 µg/mL	> 1 µg/mL
CC#CC[C@@H](C)[C@H]1CC[C@H]2[C@@H]3C(=O)C=C4C[C@@H](O)CC[C@]4(C)[C@H]3CC[C@]12C [GELLIUSTEROL B]	> 1 µg/mL	> 1 µg/mL	> 1 µg/mL	> 1 µg/mL	> 1 µg/mL
CC(C)C#CC[C@@H](C)[C@H]1CC[C@H]2[C@@H]3C(=O)C=C4C[C@@H](O)CC[C@]4(C)[C@H]3CC[C@]12C [GELLIUSTEROL C]	> 1 µg/mL	0.5 µg/mL (≈ 1.26 µM)	> 1 µg/mL	> 1 µg/mL	> 1 µg/mL
